Assay results reported in patent US20250163057A1, “DCN-1 MODULATING COMPOUNDS AND METHODS OF USE THEREOF” (Cellarity, Inc., priority 2023, published 2025).

Experiments:
[1] = system: fetal hemoglobin gene HBG1; test: HBG1 Nanostring Assay in CD34+ HSPC erythroid differentiation culture; type: cell-based, human; settings: for EC50: HBG1 induction, Day10 of erythroid differentiation; for Nanostring Ymax obs (%): relative to a control compound (C1)
How it was run: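 CD34+ HSPCs were dosed from day −2 (0.1% DMSO) through two-phase erythroid differentiation (EPO, transferrin, SCF, IL-3, insulin; IL-3 removed from day 7) at 37° C, 5% CO2. Day-10 lysates of 100K cells were hybridized at 67° C for 22 h for nCounter counting, normalized to ERCC and housekeeping controls. EC50 and Ymax were derived, with Ymax relative to a control compound.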

[2] = system: Cullin-3 (CUL3) neddylation; test: AlphaLISA assay for Cullin-3 (CUL3) neddylation in TF 1 cells; type: cell-based; settings: 3 hours treatment
How it was run: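 TF 1 cells in unsupplemented IMDM treated with compound concentrations for 3 h, then lysed. CUL3 neddylation detected by AlphaLISA (biotinylated anti-NEDD8, anti-CUL3 acceptor beads overnight, streptavidin donor beads 1 h); normalized to vehicle (0%) and 1 μM DI-1548 (100%), IC50 from Hill fits.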

DCN1 protein = DCN1 protein (Homo sapiens (Human), UniProt Q96GG9); test: Intact Protein MS Analysis with the RapidFire-TOF System (covalent adduct formation); type: binding; settings: MS Emax; 400 nM DCN1, 3 hours at room temperature
Chain of DCN1 protein (Q96GG9 whole entry): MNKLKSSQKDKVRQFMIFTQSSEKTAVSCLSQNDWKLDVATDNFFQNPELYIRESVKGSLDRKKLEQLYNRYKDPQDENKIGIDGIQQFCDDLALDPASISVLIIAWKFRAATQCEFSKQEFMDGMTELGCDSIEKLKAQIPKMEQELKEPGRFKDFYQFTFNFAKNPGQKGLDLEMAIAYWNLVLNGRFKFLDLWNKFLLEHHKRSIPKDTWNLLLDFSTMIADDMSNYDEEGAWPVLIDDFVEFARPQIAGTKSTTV
How it was run: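 Tag-cleaved human DCN1 (400 nM) expressed in E. coli, in 25 mM Tris-HCl, 200 mM NaCl, 1 mM DTT, was incubated with 11 compound concentrations for 3 h at room temperature and quenched with 0.2% formic acid. Intact-protein Q-TOF MS with deconvolution detected the compound adduct mass.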

SMILES	EC50 ([1]; Homo sapiens, 240 h) [nM]	Nanostring Ymax obs (%) [1]	IC50 ([2]; Homo sapiens, TF-1, 3 h) [nM]	% Adduct Formation (DCN1 protein)	EC50 [1] [nM]	IC50 [2] [nM]
CCN1C(=O)[C@@H](NC(=O)c2cccc(C(F)(F)F)c2)[C@@H](c2ccc(F)cc2)c2c(NC(=O)[C@@H](C)Br)nn(-c3ccccc3)c21 (mixture of isomers) [Compound I-177]	> 1000	++ (Nanostring Ymax greater than 50.0 and less than or equal to 100.0)	100 to 1000	+ (MS Emax % adduct formation greater than or equal to 0.0 and less than or equal to 30.0)	–	–
CC#CC(=O)NCc1nn(-c2ccccc2)c2c1[C@H](c1ccc(F)cc1)[C@H](NC(=O)c1cccc(C(F)(F)F)c1)C(=O)N2CC (racemic) [Compound I-184]	–	++ (Nanostring Ymax greater than 50.0 and less than or equal to 100.0)	100 to 1000	+ (MS Emax % adduct formation greater than or equal to 0.0 and less than or equal to 30.0)	–	–
CCN1C(=O)[C@@H](NC(=O)c2cccc(C(F)(F)F)c2)[C@@H](c2ccc(F)cc2)c2c(CNC(=O)[C@H](C)Br)nn(-c3ccccc3)c21 (racemic) [Compound I-180]	> 1000	+ (Nanostring Ymax greater than or equal to 0.0 and less than or equal to 50.0)	100 to 1000	+ (MS Emax % adduct formation greater than or equal to 0.0 and less than or equal to 30.0)	–	–
CCN1C(=O)[C@@H](NC(=O)c2cccc(C(F)(F)F)c2)[C@@H](c2ccc(F)cc2)c2c([C@@H](C)NC(=O)C(C)Br)nn(-c3ccccc3)c21 (stereo in doubt) [Compound I-197]	> 1000	++ (Nanostring Ymax greater than 50.0 and less than or equal to 100.0)	> 1000	+ (MS Emax % adduct formation greater than or equal to 0.0 and less than or equal to 30.0)	–	–
C=C(CN1CCOCC1)C(=O)N(C)Cc1nn(-c2ccccc2)c2c1[C@H](c1ccc(F)cc1)[C@H](NC(=O)c1cccc(C(F)(F)F)c1)C(=O)N2CC (racemic) [Compound I-185]	–	++ (Nanostring Ymax greater than 50.0 and less than or equal to 100.0)	100 to 1000	+ (MS Emax % adduct formation greater than or equal to 0.0 and less than or equal to 30.0)	–	–
CCN1C(=O)[C@@H](NC(=O)c2cccc(C(F)(F)F)c2)[C@@H](c2ccc(F)cc2)c2c(Cn3sccc3=O)nn(-c3ccccc3)c21 (racemic) [Compound I-192, rac-N-((4R,5R)-7-ethyl-4-(4-fluorophenyl)-6-oxo-3-((3-oxoisothiazol-2(3H)-yl)methyl)-1-phenyl-4,5,6,7-tetrahydro-1H-pyrazolo[3,4-b]pyridine-5-yl)-3-(trifluoromethyl)benzamide]	100 to 1000	+ (Nanostring Ymax greater than or equal to 0.0 and less than or equal to 50.0)	100 to 1000	++ (MS Emax % adduct formation greater than 30.0 and less than or equal to 80.0)	–	–
CCN1C(=O)[C@@H](NC(=O)c2cccc(C(F)(F)F)c2)[C@@H](c2ccc(F)cc2)c2c([C@@H](C)NC#N)nn(-c3ccccc3)c21 (mixture of isomers) [Compound I-167]	–	++ (Nanostring Ymax greater than 50.0 and less than or equal to 100.0)	–	+++ (MS Emax % adduct formation greater than 80.0 and less than or equal to 100.0)	100 to 1000	≤ 100
C#CC(=O)NCc1nn(-c2ccccc2)c2c1[C@H](c1ccc(F)cc1)[C@H](NC(=O)c1cccc(C(F)(F)F)c1)C(=O)N2CC (racemic) [Compound I-181]	≤ 100	+ (Nanostring Ymax greater than or equal to 0.0 and less than or equal to 50.0)	≤ 100	+ (MS Emax % adduct formation greater than or equal to 0.0 and less than or equal to 30.0)	–	–
C=CC(=O)NCc1nn(-c2ccccc2)c2c1[C@H](c1ccc(F)cc1)[C@H](NC(=O)c1cccc(C(F)(F)F)c1)C(=O)N2CC (racemic) [Compound I-202]	–	+ (Nanostring Ymax greater than or equal to 0.0 and less than or equal to 50.0)	100 to 1000	+ (MS Emax % adduct formation greater than or equal to 0.0 and less than or equal to 30.0)	–	–
CCN1C(=O)[C@@H](NC(=O)c2cccc(C(F)(F)F)c2)[C@@H](c2ccc(F)cc2)c2c(CNC(=O)/C(C#N)=C/C(C)(C)C)nn(-c3ccccc3)c21 (racemic) [Compound I-173]	100 to 1000	++ (Nanostring Ymax greater than 50.0 and less than or equal to 100.0)	≤ 100	+++ (MS Emax % adduct formation greater than 80.0 and less than or equal to 100.0)	–	–
C=C(CN(C)C)C(=O)NCc1nn(-c2ccccc2)c2c1[C@H](c1ccc(F)cc1)[C@H](NC(=O)c1cccc(C(F)(F)F)c1)C(=O)N2CC (racemic) [Compound I-18]	100 to 1000	+ (Nanostring Ymax greater than or equal to 0.0 and less than or equal to 50.0)	≤ 100	+++ (MS Emax % adduct formation greater than 80.0 and less than or equal to 100.0)	–	–
C=C(C)C(=O)NCc1nn(-c2ccccc2)c2c1[C@H](c1ccc(F)cc1)[C@H](NC(=O)c1cccc(C(F)(F)F)c1)C(=O)N2CC (racemic) [Compound I-206]	> 1000	+ (Nanostring Ymax greater than or equal to 0.0 and less than or equal to 50.0)	100 to 1000	+ (MS Emax % adduct formation greater than or equal to 0.0 and less than or equal to 30.0)	–	–
C#CC(=O)N(C)Cc1nn(-c2ccccc2)c2c1[C@H](c1ccc(F)cc1)[C@H](NC(=O)c1cccc(C(F)(F)F)c1)C(=O)N2CC (racemic) [Compound I-201]	≤ 100	+ (Nanostring Ymax greater than or equal to 0.0 and less than or equal to 50.0)	100 to 1000	+++ (MS Emax % adduct formation greater than 80.0 and less than or equal to 100.0)	–	–
CCN1C(=O)[C@@H](NC(=O)c2cccc(C(F)(F)F)c2)[C@@H](c2ccc(F)cc2)c2c([C@@H](C)NC(=O)CCl)nn(-c3ccccc3)c21 (mixture of isomers) [Compound I-190]	> 1000	++ (Nanostring Ymax greater than 50.0 and less than or equal to 100.0)	> 1000	+ (MS Emax % adduct formation greater than or equal to 0.0 and less than or equal to 30.0)	–	–
CCN1C(=O)[C@@H](NC(=O)c2cccc(C(F)(F)F)c2)[C@@H](c2ccc(F)cc2)c2c(CNC(=O)/C(C#N)=C/C(C)C)nn(-c3ccccc3)c21 (racemic) [Compound I-241]	–	+ (Nanostring Ymax greater than or equal to 0.0 and less than or equal to 50.0)	≤ 100	+++ (MS Emax % adduct formation greater than 80.0 and less than or equal to 100.0)	–	–
CCN1C(=O)[C@@H](NC(=O)c2cccc(C(F)(F)F)c2)[C@@H](c2ccc(F)cc2)c2c(CN(C)C(=O)CCl)nn(-c3ccccc3)c21 (racemic) [Compound I-227]	100 to 1000	++ (Nanostring Ymax greater than 50.0 and less than or equal to 100.0)	≤ 100	++ (MS Emax % adduct formation greater than 30.0 and less than or equal to 80.0)	–	–
CCN1C(=O)[C@@H](NC(=O)c2cccc(C(F)(F)F)c2)[C@@H](c2ccc(F)cc2)c2c(CNC(=O)C3=CCC3)nn(-c3ccccc3)c21 (racemic) [Compound I-204]	> 1000	+ (Nanostring Ymax greater than or equal to 0.0 and less than or equal to 50.0)	100 to 1000	+ (MS Emax % adduct formation greater than or equal to 0.0 and less than or equal to 30.0)	–	–
CCN1C(=O)[C@@H](NC(=O)c2cccc(C(F)(F)F)c2)[C@@H](c2ccc(F)cc2)c2c(CNC(=O)/C=C/CN3CCC3)nn(-c3ccccc3)c21 (racemic) [Compound I-203]	100 to 1000	+ (Nanostring Ymax greater than or equal to 0.0 and less than or equal to 50.0)	100 to 1000	+ (MS Emax % adduct formation greater than or equal to 0.0 and less than or equal to 30.0)	–	–
C=C(CN(C)C)C(=O)N(C)Cc1nn(-c2ccccc2)c2c1[C@H](c1ccc(F)cc1)[C@H](NC(=O)c1cccc(C(F)(F)F)c1)C(=O)N2CC (racemic) [Compound I-178]	100 to 1000	++ (Nanostring Ymax greater than 50.0 and less than or equal to 100.0)	≤ 100	+++ (MS Emax % adduct formation greater than 80.0 and less than or equal to 100.0)	–	–
C#CC(=O)N[C@H](C)c1nn(-c2ccccc2)c2c1[C@H](c1ccc(F)cc1)[C@H](NC(=O)c1cccc(C(F)(F)F)c1)C(=O)N2CC (mixture of isomers) [Compound I-236]	≤ 100	+ (Nanostring Ymax greater than or equal to 0.0 and less than or equal to 50.0)	≤ 100	+++ (MS Emax % adduct formation greater than 80.0 and less than or equal to 100.0)	–	–
